Measured values published in patent US20060052350A1, “Crystalline forms of 1,24(S)-dihydroxy vitamin D2” (priority 2004, published 2006).

Assay: Stability of the crystalline forms exposed to 100% relative humidity (resulting form identified by powder XRD)
Type: physicochemical
Conditions: 100% relative humidity for about 1 week at room temperature
Method: The crystal forms were identified using an Applied Research Laboratory (SCINTAG) powder X-ray diffractometer model X'TRA equipped with a solid state detector. The crystal samples were analyzed using a round aluminum sample holder with zero background and copper radiation of 1.5418 Å.

Maintenance of crystal structure (no transformation to another crystalline form) on humidity exposure: maintain their crystal structure
Compound: C=C1/C(=C\C=C2/CCCC3(C)C2CCC3[C@H](C)/C=C/[C@@](C)(O)C(C)C)C[C@@H](O)C[C@@H]1O (stereo partly drawn) [Form B, 1,24(S)-dihydroxy vitamin D2]
